Source: patent publication US20210353751A1, “COMBINATION THERAPIES FOR TREATMENT OF INFLAMMATORY DISEASES” (The Regents of The University of California, priority 2018, published 2021)
Like-named read-outs stand apart in the source and are kept apart here.

Key:
Newly-diabetic NOD mice [1] = assay: Anti-CD3 plus GABA in newly-diabetic NOD mice: glycemia and islet staining (insulin/glucagon) after three months; type: in vivo
Description: Newly-diabetic NOD mice (blood glucose 220-300 mg/dL on two consecutive days) were treated with anti-CD3 (non-Fc binding anti-CD3ε F(ab′)2 from BioExpress, 40 μg/day intravenously for 5 consecutive days) and immediately began one of the following additional treatments: • (1) control PBS IP; • (2) GABA (dissolved in PBS, 250 μg/kg, IP); • (3) control plain drinking water; or • (4a) drinking water containing 6 mg/ml GABA or (4b) drinking water containing 20 mg/ml GABA. Mice drink approximately 4 ml/day, so Group 4a consumed approximately 24 mg/day of GABA and Group 4b consumed approximately 80 mg/day of GABA.
Three months after beginning treatment, pancreata from the mice were removed and sections (4 μm) were stained with Alexa Fluor 647-anti-glucagon (shown in red in the Figures) and Alexa-488 conjugated with anti-insulin (shown in green in the Figures), followed by staining with 4′,6-diamidino-2-phenylindole (“DAPI”). Images were captured using a fluorescent microscope and at least 30 islets from each group of mice (n=4) were analyzed. Data are representative islet images or expressed as the mean±standard deviation (“SD”) of each group.

[2] = after intravenous or intraperitoneal injection; cited from earlier work
Newly-diabetic NOD mice [3] = details: oral GABA at 20 mg/ml, monotherapy; cited from earlier work
Newly-diabetic NOD mice [4] = assay: Homotaurine monotherapy dose-finding study in newly-diabetic NOD mice; type: in vivo
Description: To determine whether homotaurine had therapeutic potential in NOD mice, the inventors performed a dose finding study with homotaurine dissolved in the drinking water at 0, 0.08, 0.25 or 0.75 mg/ml. […] Newly-diabetic NOD mice that were untreated rapidly progressed to severe hyperglycemia within 1 week. […] Thus, oral homotaurine monotherapy at an appropriate dose can quickly correct hyperglycemia and maintain normoglycemia for a short period, but most of the treated mice become hyperglycemic again.
A dose finding study was performed with homotaurine dissolved in the drinking water at 0, 0.08, 0.25 or 0.75 mg/ml to determine the therapeutic potential in NOD mice. […] Newly-diabetic NOD mice that were untreated rapidly progressed to severe hyperglycemia within 1 week. […] Thus, oral homotaurine monotherapy at an appropriate dose can quickly correct hyperglycemia but most of the treated mice become hyperglycemic again within a short period.
NOD mice (Taconic Farms, Germantown) were housed in a specific pathogen-free facility. Only female NOD mice were used.
Blood glucose levels were monitored 2-3 times weekly using a One Touch Ultrasensitive monitor and those with two consecutive daily blood glucose levels between 250-300 mg/dL were entered into the study. The mice were randomly assigned to groups that continually received water containing 0, 0.08, 0.25, or 0.75 mg/ml homotaurine, pH 7.2 through their drinking water. Each mouse consumed on average about 4-5 ml of water per day. Water bottles were changed every five days. Treated mice with two consecutive blood glucose readings below 250 mg/dL were considered to be in remission after which two consecutive blood glucose readings >250 mg/dL was considered disease relapse.

[5] = system: newly severely hyperglycemic NOD mice; assay: Combined GABA-R agonist and low-dose anti-CD3 treatment in severely hyperglycemic NOD mice (remission/relapse); type: in vivo; details: homotaurine alone 0.25 mg/ml; severe hyperglycemia at entry
Description: The inventors hypothesized that combining GABA-Receptor activation with an immunosuppressant may allow effective disease reversal using lower dosages of the immunosuppressant and thereby reduce the possibility of side effects. The inventors chose to test anti-CD3 since it is a prototypic immunosuppressant that is in clinical use. In pilot studies, the inventors developed a low-dose anti-CD3 treatment protocol (35 μg anti-CD3 on three consecutive days), which reversed hyperglycemia in about a third of newly-diabetic NOD mice with severe hyperglycemia at entry into the study (blood glucose >350 mg/dL). The inventors then treated newly severely hyperglycemic NOD mice with low-dose anti-CD3 together with homotaurine (0.25 mg/ml), GABA (6 mg/ml), or plain water.
For these studies, the inventors initiated treatment when the NOD mice had blood glucose levels >350 mg/dL. […] Treated mice with two consecutive blood glucose readings below 250 mg/dL were considered to be in remission after which two consecutive blood glucose readings >250 mg/dL was considered to be disease relapse […]
Treatment was initiated when the NOD mice had blood glucose levels >350 mg/dL. […] Treated mice with two consecutive blood glucose readings below 250 mg/dL were considered to be in remission after which two consecutive blood glucose readings >250 mg/dL was considered to be disease relapse.

[6] = system: PLN mononuclear cells of NOD mice; assay: Pancreatic lymph node (PLN) mononuclear cell analysis; type: in vivo; details: treated at 15-18 weeks in age, studied 3 weeks later; monotherapies relative to control, combination relative to monotherapies
Description: This increase was significant for CD4^+CD25^+Foxp3^+ cells in comparison to homotaurine monotherapy. Thus, combined therapy also elevated the average frequencies of CD4^+ and CD8^+ Tregs within the target tissue/PLN of NOD mice

GABA-R = details: relative to GABA; cited from earlier work
[7] = system: splenic Tregs of SJL mice; details: homotaurine monotherapy, EAE model; cited from earlier work
[8] = homotaurine 0.08 mg/ml in drinking water
[9] = homotaurine 0.25 mg/ml in drinking water

Compound	numbers of bihormonal cells versus groups treated with lower dosages of GABA (Newly-diabetic NOD mice [1]; GABA 20 mg/ml in drinking water with anti-CD3)	frequency of bihormonal glucagon+ insulin+ cells versus control groups (Newly-diabetic NOD mice [1]; all GABA-treated groups (250 μg/kg IP, 6 or 20 mg/ml in water), all with anti-CD3)	increase in the frequency of insulin+ cells per islet relative to control groups who received anti-CD3 alone (Newly-diabetic NOD mice [1]; highest GABA dose (20 mg/ml in drinking water) with anti-CD3) [fold]	half-life in plasma [2] [min]	restoration of normoglycemia (Newly-diabetic NOD mice [3])	time at which mice became hyperglycemic again (Newly-diabetic NOD mice [3])	water or food consumption or body weights over the course of the study (Newly-diabetic NOD mice [4]; homotaurine 0, 0.08, 0.25 or 0.75 mg/ml in drinking water)	delay of disease progression (mean) (Newly-diabetic NOD mice [4]; [8]) [weeks]	effect on disease progression (Newly-diabetic NOD mice [4]; [8])	restoration of normoglycemia (Newly-diabetic NOD mice [4]; [9])	time at which most mice became hyperglycemic again (Newly-diabetic NOD mice [4]; [9]) [weeks]	effect on disease progression (Newly-diabetic NOD mice [4]; homotaurine 0.75 mg/ml in drinking water, on average less effective than 0.25 mg/ml)	mean remission period for all mice (Newly-diabetic NOD mice [4]; homotaurine monotherapy 0.25 mg/ml in drinking water) [weeks]	induction of remission [5]	frequency of CD4+CD25+Foxp3+ cells in the PLN [6]	frequency of CD8+CD122+PD-1+ cells in the PLN [6]	affinity for GABA-R, higher than GABA (GABA-R) [fold]	half-life in plasma compared with GABA [2]	frequency of splenic CD4+Foxp3+ Tregs [7]	frequency of splenic CD8+CD122+PD-1+ Tregs [7]
NCCCC(=O)O [GABA, γ-aminobutyric acid]	greater numbers of bihormonal cells	significantly increased	26	20	restored normoglycemia in all mice	generally within five weeks	–	–	–	–	–	–	–	–	–	–	–	–	–	–
NCCCS(=O)(=O)O [homotaurine]	–	–	–	–	–	–	None of the mouse groups under study differed	2.2	delayed disease progression for a very brief period	restored normoglycemia in all mice	≤ 6	some delay in disease progression	14	unable to induce remission	significantly increased	significantly increased	> 3	longer half-life than GABA	increased the frequency	increased the frequency
